The values below come from publication PMC10165934 (Emerging Microbes & Infections, 2023).

Where two headings read alike, the source gives them in different places.

The test system of test [1] is SARS-CoV-2. The note with it: read-out: antiviral EC50; ref 39 (Kasprzyk et al.); cited from earlier work.
For test [2], the target named is T1, SARS-CoV-2 NSP14 MTase (Severe acute respiratory syndrome coronavirus 2, UniProt P0DTD1). As to conditions: read-out: anti-MTase IC50; ref 39 (Kasprzyk et al.); cited from earlier work.
In test [3] the test system is SARS-CoV-2. The note with it: read-out: antiviral EC50; ref 37 (Basu et al.); cited from earlier work.
Test [4] addresses T2, NS5 MTase of ZIKV (Zika virus, UniProt Q32ZE1).
T2 sequence (Q32ZE1 2517-2790): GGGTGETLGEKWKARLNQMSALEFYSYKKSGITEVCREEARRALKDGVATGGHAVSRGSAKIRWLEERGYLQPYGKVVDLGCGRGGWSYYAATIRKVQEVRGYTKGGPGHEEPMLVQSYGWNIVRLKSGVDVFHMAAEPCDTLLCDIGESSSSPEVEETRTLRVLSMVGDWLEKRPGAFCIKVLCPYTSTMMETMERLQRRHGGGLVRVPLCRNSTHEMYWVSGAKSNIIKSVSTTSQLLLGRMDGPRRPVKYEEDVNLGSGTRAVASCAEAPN
Nature of the test: FP-based FL-NAH displacement assay, ZIKV NS5. In kind it is binding. The note with it: ZIKV NS5 2.5 µM, 96-well plate.

The target of test [5] is SARS-CoV-2 NSP16 2’-O MTase (Severe acute respiratory syndrome coronavirus 2, UniProt P0DTD1). Nature of the test: FP-based FL-NAH displacement assay, NSP16. In kind it is binding. As to conditions: NSP16 0.5 µM, 96-well plate.
For test [6], the target named is T1, SARS-CoV-2 NSP14 MTase. Kind of test: FP-based FL-NAH displacement assay. In kind it is binding.
Test [7] deals with T1, SARS-CoV-2 NSP14 MTase. The note with it: read-out: anti-MTase IC50; ref 37 (Basu et al.); cited from earlier work.
For test [8], the system named is SARS-CoV-2 WA strain. Kind of test: Checkerboard combination assay. In kind it is cell-based. As to conditions: Vero E6 cells.

`Cc1cc(-c2ccc(/N=N/c3ccc4c(S(=O)(=O)O)cc(S(=O)(=O)O)c(N)c4c3O)c(C)c2)ccc1/N=N/c1ccc2c(S(=O)(=O)O)cc(S(=O)(=O)O)c(N)c2c1O` [Evans Blue]: the EC50 in test [1] is 31 µM. Besides, the IC50 in test [2] was 4.9 µM.

For the molecule `N#Cc1ccc(N2N=C3c4ccc(C(=O)O)cc4CC[C@@H]3[C@@H]2C2CCCC2)cc1Cl` [PF-03882845], the EC50 in test [3] is 11 µM. On to `NCCOc1cc(C(=O)Nc2cc(OCCN)c3ccccc3n2)nc(C(=O)Nc2cc(OCCN)c3ccccc3n2)c1` [Pyridostatin], for which, in test [1], the EC50 was 3.6 µM. Further, in test [2], the IC50 is 4.1 µM. In the case of `Nc1c(S(=O)(=O)O)cc(Nc2ccc(Nc3nc(Cl)nc(Nc4cccc(S(=O)(=O)O)c4)n3)c(S(=O)(=O)O)c2)c2c1C(=O)c1ccccc1C2=O` [Reactive blue 2], the EC50 in test [1] is 16.3 µM. On to `Nc1ncnc2c1ncn2[C@@H]1O[C@H](CSCC[C@H](N)C(=O)O)[C@@H](O)[C@H]1O` [SAH, S-adenosyl-L-homocysteine], for which, in test [4], the “quenching of FP from FL-NAH binding to the ZIKV NS5 MTase” value is reported as “quenched”. In addition, the “quenching of FP from FL-NAH binding to NSP16” value in test [5] is recorded as “quenched”. Consider `C[S+](CC[C@H](N)C(=O)[O-])C[C@H]1O[C@@H](n2cnc3c(N)ncnc32)[C@H](O)[C@@H]1O` (some centres unmarked) [SAM, S-adenosylmethionine], for which, in test [6], the IC50 was 25 µM. Further, the “quenching of FP from FL-NAH binding to the ZIKV NS5 MTase” value in test [4] is “quenched”. In addition, the “quenching of FP from FL-NAH binding to NSP16” value in test [5] is given as “quenched”. In the case of `O=C(CCCN1CCC(O)(c2cccc(C(F)(F)F)c2)CC1)c1ccc(F)cc1` [Trifluperidol], in test [7], the IC50 was 23 µM. Besides, the EC50 in test [3] was 59.8 µM.

As to `CC(C)(C)[C@H](NC(=O)C(F)(F)F)C(=O)N1C[C@H]2[C@@H]([C@H]1C(=O)N[C@H](C#N)C[C@@H]1CCNC1=O)C2(C)C` [nirmatrelvir], the “EC50 shift in the presence of NSC111552 (1.67 µM)” value in test [8] was roughly 1.8 fold.

Take `CCC(CC)COC(=O)[C@H](C)N[P@](=O)(OC[C@H]1O[C@@](C#N)(c2ccc3c(N)ncnn23)[C@H](O)[C@@H]1O)Oc1ccccc1` [remdesivir]: the “EC50 decrease in the presence of NSC111552 ([…])” value in test [8] is “about 2.4 fold”. As for Inauhzin, the IC50 in test [7] was 12.9 µM. Besides, the concentration giving a half-maximal response (EC50) in test [3] is 13 µM.
